The structures appear in SMILES notation.

System in one series: not given
Assay: not given
Conditions: not given
As usually defined, the melting point is the temperature of the solid-liquid transition. As for `Cn1nc(-c2cc(Oc3ccccc3)c(C#N)cc2F)c(Cl)c1C(F)(F)F` [Example 2, 4-chloro-3-(4-cyano-2-fluoro-5-phenoxyphenyl)-1-methyl-5-trifluoromethyl-1H-pyrazole], the melting point is 123 °C. Still for that read-out and setting: to `CCOC(=O)C(C)Oc1ccc(Oc2cc(-c3nn(C)c(OC(F)F)c3Br)c(F)cc2C#N)cc1` (stereo not shown) [Example 1, ethyl 2-[4-[2-cyano-5-[4-bromo-5-(difluoromethoxy)-1-methyl-1H-pyrazo-3-yl]-4-fluoro-phenoxy]-phenoxy]-propionate] belongs 60 °C.

In the next series the test system is weeds. The series can be described thus: Post-emergence test (Example B), activity against weeds. It is filed as in vivo. Conditions: test plants 5-15 cm sprayed, rated after three weeks. The procedure: Post-emergence Test Solvent: 5 parts by weight of acetone Emulsifier: 1 part by weight of alkylaryl polyglycol ether To produce a suitable preparation of active compound, 1 part by weight of active compound is mixed with the stated amount of solvent, the stated amount of emulsifier is added and the concentrate is diluted with water to the desired concentration. Test plants which have a height of 5-15 cm are sprayed with the preparation of the active compound in such a way as to apply the particular amounts of active compound desired per unit area. The concentration of the spray liquor is chosen so that the amounts of active compound desired in each case are applied in 1000 l of water/ha. After three weeks, the degree of damage to the plants is rated in % damage in comparison with the development of the untreated control. The figures denote: 0%=no effect (like untreated control) 100%=total destruction
With `CCOC(=O)C(C)Oc1ccc(Oc2cc(-c3nn(C)c(OC(F)F)c3Br)c(F)cc2C#N)cc1` (stereo not shown) [Example 1, ethyl 2-[4-[2-cyano-5-[4-bromo-5-(difluoromethoxy)-1-methyl-1H-pyrazo-3-yl]-4-fluoro-phenoxy]-phenoxy]-propionate], the “activity against weeds (degree of damage)” value was “strong activity against weeds”.

The next series has as its system weeds. In words: Pre-emergence test (Example A), activity against weeds. Format: in vivo. Conditions: soil sprayed about 24 hours after sowing, rated after three weeks. The procedure: (§1) Pre-emergence Test Solvent: 5 parts by weight of acetone Emulsifier: 1 part by weight of alkylaryl polyglycol ether To produce a suitable preparation of active compound, 1 part by weight of active compound is mixed with the stated amount of solvent, the stated amount of emulsifier is added and the concentrate is diluted with water to the desired concentration. Seeds of the test plants are sown in normal soil. After approximately 24 hours, the soil is sprayed with the preparation of the active compound in such a way as to apply the particular amount of active compound desired per unit area. The concentration of the spray liquor is chosen so that the amount of active compound desired in each case is applied in 1000 liter of water per hectare. After three weeks, the degree of damage to the plants is rated in % damage in comparison with the development of the untreated control. The figures denote: [table]
Take `CCOC(=O)C(C)Oc1ccc(Oc2cc(-c3nn(C)c(OC(F)F)c3Br)c(F)cc2C#N)cc1` (stereo not shown) [Example 1, ethyl 2-[4-[2-cyano-5-[4-bromo-5-(difluoromethoxy)-1-methyl-1H-pyrazo-3-yl]-4-fluoro-phenoxy]-phenoxy]-propionate]: the “activity against weeds (degree of damage)” value is “strong activity against weeds”.

System in a further series: not listed separately
In words: log P determination by HPLC, reversed-phase column (EEC Directive 79/831 Annex V.A8). Format: physicochemical. Conditions: reversed-phase C 18, 43° C., acidic range: 0.1% aqueous phosphoric acid, acetonitrile, gradient 10% to 90% (data labelled a)). On the procedure: The log P values given in Table 1 were determined in accordance with the EEC Directive 79/831 Annex V.A8 by HPLC (High Performance Liquid Chromatography) using a reversed-phase column (C 18). Temperature: 43° C. (a) Mobile phases for the determination in the acidic range: 0.1% aqueous phosphoric acid, acetonitrile; linear gradient from 10% acetonitrile to 90% acetonitrile—the corresponding data are labelled a) in Table 1. (b) Mobile phases for the determination in the neutral range: 0.01 molar aqueous phosphate buffer solution, acetonitrile; linear gradient from 10% acetonitrile to 90% acetonitrile—the corresponding data are labelled b) in Table 1. The calibration was carried out using unbranched alkan-2-ones (having from 3 to 16 carbon atoms) whose log P values are known (determination of the log P values by the retention times by linear interpolation between two successive alkanones).
On to `Cc1cccc(Oc2cc(-c3nn(C)c(OC(F)F)c3Cl)c(F)cc2C#N)c1` [Example 57], for which the “log P” value is on record as “logP: 4.43^a)”. The same measure, in the same setting: to `Cn1nc(-c2cc(Oc3cccc(OC(F)(F)F)c3)c(C#N)cc2F)c(Cl)c1OC(F)F` [Example 123] belongs “logP: 4.72^a)”. Same read-out and setting: to `COc1ccccc1Oc1cc(-c2nn(C)c(OC(F)F)c2Cl)c(F)cc1C#N` [Example 59] belongs “logP: 3.98^a)”; to `Cn1nc(-c2cc(Oc3cccc(F)c3F)c(C#N)cc2F)c(Cl)c1OC(F)F` [Example 117], “logP: 4.13^a)”; to `Cn1nc(-c2cc(Oc3ccc(OC(F)(F)F)cc3)c(C#N)cc2F)c(Cl)c1OC(F)F` [Example 76], “logP: 4.70^a)”. On the same count and under the same terms, to `CCN(CC)c1cccc(Oc2cc(-c3nn(C)c(OC(F)F)c3Cl)c(F)cc2C#N)c1` [Example 122] belongs “logP: 4.40^a)”; to `Cc1ccc(Oc2cc(-c3nn(C)c(OC(F)F)c3Cl)c(F)cc2C#N)cc1` [Example 58], “logP: 4.45^a)”; to `Cn1nc(-c2cc(Oc3cccc(Cl)c3)c(C#N)cc2F)c(Cl)c1OC(F)F` [Example 68], “logP: 4.49^a)”. On to `COc1ccc(Oc2cc(-c3nn(C)c(OC(F)F)c3Cl)c(F)cc2C#N)cc1` [Example 61], for which the “log P” value is “logP: 4.05^a)”.

Regarding `Cn1nc(-c2cc(Oc3ccc(Cl)cc3)c(C#N)cc2F)c(Cl)c1OC(F)F` [Example 69], the “log P” value is given as “logP: 4.49^a)”. Consider `COc1cccc(Oc2cc(-c3nn(C)c(OC(F)F)c3Br)c(F)cc2C#N)c1OC` [Example 112], for which the “log P” value was “logP: 3.80^a)”. As for `Cc1ccccc1Oc1cc(-c2nn(C)c(OC(F)F)c2Cl)c(F)cc1C#N` [Example 56], the “log P” value is given as “logP: 4.40^a)”. On the same count and under the same terms, the same measure for `Cn1nc(-c2cc(Oc3ccc(C(F)(F)F)cc3)c(C#N)cc2F)c(Cl)c1OC(F)F` [Example 52]: “logP: 4.59^a)”.

Turning to `Cn1nc(-c2cc(Oc3ccccc3F)c(C#N)cc2F)c(Cl)c1OC(F)F` [Example 70], the “log P” value is “logP: 4.02^a)”.

As to `Cn1nc(-c2cc(Oc3ccc(F)cc3)c(C#N)cc2F)c(Cl)c1OC(F)F` [Example 72], the “log P” value was “logP: 4.13^a)”. The same measure, in the same setting: to `COc1cccc(Oc2cc(-c3nn(C)c(OC(F)F)c3Cl)c(F)cc2C#N)c1` [Example 60] belongs “logP: 4.13^a)”; to `COc1ccc(Oc2cc(-c3nn(C)c(OC(F)F)c3Cl)c(F)cc2C#N)cc1OC` [Example 126], “logP: 3.72^a)”.

Turning to `Cn1nc(-c2cc(Oc3cccc(F)c3)c(C#N)cc2F)c(Cl)c1OC(F)F` [Example 71], the “log P” value is reported as “logP: 4.17^a)”.

As for `Cc1ccc(Cl)c(Oc2cc(-c3nn(C)c(OC(F)F)c3Cl)c(F)cc2C#N)c1` [Example 125], the “log P” value is “logP: 4.59^a)”. Same read-out and setting: the same measure for `CC(=O)c1ccc(Oc2cc(-c3nn(C)c(OC(F)F)c3Cl)c(F)cc2C#N)cc1` [Example 84]: “logP: 3.66^a)”; for `Cc1ccc(Oc2cc(-c3nn(C)c(OC(F)F)c3Cl)c(F)cc2C#N)cc1C` [Example 120]: “logP: 4.74^a)”. On to `CC(C)Oc1ccccc1Oc1cc(-c2nn(C)c(OC(F)F)c2Cl)c(F)cc1C#N` [Example 119], for which the “log P” value is “logP: 4.55^a)”. `CN(C)Cc1ccccc1Oc1cc(-c2nn(C)c(OC(F)F)c2Cl)c(F)cc1C#N` [Example 121]: the “log P” value is given as “logP: 2.03^a)”. Still for that read-out and setting: the same measure for `Cn1nc(-c2cc(Oc3ccccc3Cl)c(C#N)cc2F)c(Cl)c1OC(F)F` [Example 67]: “logP: 4.28^a)”; for `COc1cccc(Oc2cc(-c3nn(C)c(OC(F)F)c3Cl)c(F)cc2C#N)c1OC` [Example 124]: “logP: 3.98^a)”; for `Cn1nc(-c2cc(Oc3cccc(C(F)(F)F)c3)c(C#N)cc2F)c(Cl)c1OC(F)F` [Example 51]: “logP: 4.55^a)”.

On to `CN(C)C(=O)c1ccccc1Oc1cc(-c2nn(C)c(OC(F)F)c2Cl)c(F)cc1C#N` [Example 115], for which the “log P” value was “logP: 3.20^a)”. `Cn1nc(-c2cc(Oc3ccc(Cl)c(Cl)c3)c(C#N)cc2F)c(Cl)c1OC(F)F` [Example 118]: the “log P” value is listed as “logP: 4.89^a)”. As for `CN(C)c1cccc(Oc2cc(-c3nn(C)c(OC(F)F)c3Cl)c(F)cc2C#N)c1` [Example 116], the “log P” value is reported as “logP: 4.38^a)”.

Another series relates to crop plants, such as, for example, barley, wheat, maize and soya. The series can be described thus: Pre-emergence test (Example A), compatibility with crop plants. Format: in vivo. To be noted: rated after three weeks. On the procedure: as §1
For the compound `CCOC(=O)C(C)Oc1ccc(Oc2cc(-c3nn(C)c(OC(F)F)c3Br)c(F)cc2C#N)cc1` (stereo not shown) [Example 1, ethyl 2-[4-[2-cyano-5-[4-bromo-5-(difluoromethoxy)-1-methyl-1H-pyrazo-3-yl]-4-fluoro-phenoxy]-phenoxy]-propionate], the “compatibility with crop plants” value is given as “good compatibility with crop plants”.

The record behind these values is patent US6559102B1, “Substituted 3-aryl-pyrazoles” (Bayer Aktiengesellschaft, priority 1998, dated 2003).
